The source of these data is publication PMC5362899, “Structural insights into the nucleotide base specificity of P2X receptors” (Scientific Reports, 2017).

One experiment addresses T1, zfP2X4 (ΔP2X4-C) WT (Danio rerio, UniProt F8W463, N187R/N78K).
T1 construct: EGFP (N); octa-histidine tag (N); made in house; host or cells: Sf9 insect cells
T1 sequence (F8W463 28-365 N78K/N187R limits assumed): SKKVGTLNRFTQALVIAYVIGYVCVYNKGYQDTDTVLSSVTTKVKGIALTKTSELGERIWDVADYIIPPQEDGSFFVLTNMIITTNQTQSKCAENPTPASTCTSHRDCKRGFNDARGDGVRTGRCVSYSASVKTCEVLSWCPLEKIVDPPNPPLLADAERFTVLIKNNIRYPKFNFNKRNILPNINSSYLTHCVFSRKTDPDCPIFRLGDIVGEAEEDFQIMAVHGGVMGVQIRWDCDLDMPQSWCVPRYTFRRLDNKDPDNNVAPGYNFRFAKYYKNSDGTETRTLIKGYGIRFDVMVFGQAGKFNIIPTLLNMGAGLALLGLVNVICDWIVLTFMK
In words: ATR-FTIR difference spectroscopy, residual nucleotide after washing, zfP2X4 WT. In kind it is binding, zebrafish. The note with it: 10 μM nucleotide, after 15–30 min washing, P-O stretching bands 1250–800 cm−1. The source says:
(§1) To further investigate the nucleotide binding specificity of zfP2X4, we applied ligand-binding induced difference Attenuated total reflectance (ATR)-Fourier-transform infrared (FTIR) spectroscopy on the WT and conserved threonine mutants (T189S and T189V) of zfP2X4.
(§2) Figure 5 ATR-FTIR spectroscopic analysis of zfP2X4 for the ATP and CTP bindings. (A) The reduction of the ligand binding induced difference spectra in the ΔP2X4-C ^zfWT, ^zfT189S and ^zfT189V mutants around the P-O stretching region (1250–800 cm^−1) after washing treatment for 15–30 min. (B) The residual nucleotides after the washing treatment estimated from the ATR-FTIR analysis in (A).
(§3) The nucleotide binding affinity of zfP2X4 was analyzed by reduction of the band intensity after washing treatment (Fig. 5). The reduction of the P-O stretching bands between 1250–800 cm^−1 was monitored for ATP (Fig. 5A). […]
(§4) The perfusion-induced difference FTIR spectroscopy was performed as similarly to the previous studies. […] ATR-FTIR spectra of the samples were recorded at 25 °C and 2 cm^−1 resolution using a VERTEX 70 spectrometer (Bruker Optics) equipped with a liquid-nitrogen-cooled MCT detector. […] The obtained difference spectra were normalized based on the absolute absorbance of the amide I band at 1653 cm^−1, which well correlates with the quantities of the proteins on the ATR crystals. […]

For experiment [1], the target named is T2, zfP2X4 (ΔP2X4-C) T189V mutant (Danio rerio, UniProt F8W463, N187R/N78K/T189V).
T2 construct: EGFP (N); octa-histidine tag (N); made in house; host or cells: Sf9 insect cells
T2 sequence (F8W463 28-365 N78K/N187R/T189V limits assumed): T1 sequence (F8W463 28-365 N78K/N187R limits assumed) with T162V
In words: ATR-FTIR difference spectroscopy, residual nucleotide after washing, zfP2X4 T189V. The note with it: 10 μM nucleotide, after 15–30 min washing, P-O stretching bands 1250–800 cm−1. In kind it is binding, zebrafish.
Source text: as §1, §2, §3, §4

SMILES strings stand for the structures. Changes are numbered by the printed parent chain.

As to `Nc1ncnc2c1ncn2[C@@H]1O[C@H](COP(=O)(O)OP(=O)(O)OP(=O)(O)O)[C@@H](O)[C@H]1O` [ATP, Adenosine 5-triphosphate], the “residual nucleotide binding after washing” value on zfP2X4 (ΔP2X4-C) WT is on record as ~ 80%; in experiment [1], 10%.
For `Nc1ccn([C@@H]2O[C@H](COP(=O)(O)OP(=O)(O)OP(=O)(O)O)[C@@H](O)[C@H]2O)c(=O)n1` [CTP], in that order: ~ 50% and ~ 30%.
